Measured values reported in the supplement of paper PMC10307832.

Key:
Experiment in all cases: relative viability (nuclei count vs DMSO), 5 days (fraction); higher = more cells survive
Pictilisib + Trametinib = compound: CS(=O)(=O)N1CCN(Cc2cc3nc(-c4cccc5[nH]ncc45)nc(N4CCOCC4)c3s2)CC1 [Pictilisib] + CC(=O)Nc1cccc(-n2c(=O)n(C3CC3)c(=O)c3c(Nc4ccc(I)cc4F)n(C)c(=O)c(C)c32)c1 [Trametinib] (partner 0.02 µM)
Summary of the method: (§1)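 Five library-drug doses in √10 steps were combined with a fixed anchor-drug dose, or a single drug was given alone, by pin tool to lung cancer cell lines in 1536-well plates the day after seeding. Nuclei were stained and counted after 5 days. Relative viability is the nuclei count in treated wells over that in vehicle wells, taken as the median of duplicate plates.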

MK-2206 + Pictilisib = compound: NC1(c2ccc(-c3nc4ccn5c(=O)[nH]nc5c4cc3-c3ccccc3)cc2)CCC1 [MK-2206] + CS(=O)(=O)N1CCN(Cc2cc3nc(-c4cccc5[nH]ncc45)nc(N4CCOCC4)c3s2)CC1 [Pictilisib] (partner 1 µM)
Summary of the method: as §1

MK-2206 + Palbociclib = compound: NC1(c2ccc(-c3nc4ccn5c(=O)[nH]nc5c4cc3-c3ccccc3)cc2)CCC1 [MK-2206] + CC(=O)c1c(C)c2cnc(Nc3ccc(N4CCNCC4)cn3)nc2n(C2CCCC2)c1=O [Palbociclib] (partner 0.5 µM)
Summary of the method: as §1

MK-2206 + Bortezomib = compound: NC1(c2ccc(-c3nc4ccn5c(=O)[nH]nc5c4cc3-c3ccccc3)cc2)CCC1 [MK-2206] + CC(C)C[C@H](NC(=O)[C@H](Cc1ccccc1)NC(=O)c1cnccn1)B(O)O [Bortezomib] (partner 0.002 µM)
Summary of the method: as §1

Pictilisib + Pemetrexed = compound: CS(=O)(=O)N1CCN(Cc2cc3nc(-c4cccc5[nH]ncc45)nc(N4CCOCC4)c3s2)CC1 [Pictilisib] + Nc1nc2[nH]cc(CCc3ccc(C(=O)N[C@@H](CCC(=O)O)C(=O)O)cc3)c2c(=O)[nH]1 [Pemetrexed] (partner 0.2 µM)
Summary of the method: as §1

Row | Cell Line | relative viability (Pictilisib + Trametinib; first compound 0.02 µM) | relative viability (Pictilisib + Trametinib; first compound 0.06325 µM) | relative viability (Pictilisib + Trametinib; first compound 0.6325 µM) | relative viability (Pictilisib + Trametinib; first compound 2 µM) | relative viability (MK-2206 + Pictilisib; first compound 0.01 µM) | relative viability (MK-2206 + Pictilisib; first compound 0.03162 µM) | relative viability (MK-2206 + Pictilisib; first compound 0.3162 µM) | relative viability (MK-2206 + Pictilisib; first compound 1 µM) | relative viability (MK-2206 + Palbociclib; first compound 0.01 µM) | relative viability (MK-2206 + Palbociclib; first compound 0.03162 µM) | relative viability (MK-2206 + Palbociclib; first compound 0.3162 µM) | relative viability (MK-2206 + Palbociclib; first compound 1 µM) | relative viability (MK-2206 + Bortezomib; first compound 0.01 µM) | relative viability (MK-2206 + Bortezomib; first compound 0.03162 µM) | relative viability (MK-2206 + Bortezomib; first compound 0.3162 µM) | relative viability (MK-2206 + Bortezomib; first compound 1 µM) | relative viability (Pictilisib + Pemetrexed; first compound 0.02 µM) | relative viability (Pictilisib + Pemetrexed; first compound 0.06325 µM) | relative viability (Pictilisib + Pemetrexed; first compound 0.6325 µM) | relative viability (Pictilisib + Pemetrexed; first compound 2 µM)
1 | NCI-H727 | 0.409 | 0.367 | 0.344 | 0.331 | 0.47 | 0.413 | 0.36 | 0.254 | 0.775 | 0.658 | 0.638 | 0.625 | 0.901 | 0.828 | 0.587 | 0.54 |  |  |  | 
2 | NCI-H1299 |  |  |  |  | 0.832 | 0.728 | 0.744 | 0.769 |  |  |  |  | 1.04 | 1.02 | 1.09 | 1 |  |  |  | 
3 | NCI-H1395 | 1.03 | 1.03 | 0.866 | 0.477 | 0.653 | 0.677 | 0.462 | 0.498 | 0.65 | 0.664 | 0.485 | 0.526 |  |  |  |  | 1.01 | 0.905 | 0.745 | 0.373
4 | NCI-H1563 |  |  |  |  | 0.625 | 0.665 | 0.633 | 0.626 |  |  |  |  | 0.869 | 0.947 | 0.636 | 0.768 | 0.742 | 0.764 | 0.635 | 0.45
5 | NCI-H1648 | 0.363 | 0.401 | 0.236 | 0.222 |  |  |  |  | 0.229 | 0.269 | 0.301 | 0.331 |  |  |  |  | 0.72 | 0.802 | 0.614 | 0.41
6 | NCI-H1703 |  |  |  |  | 0.239 | 0.232 | 0.236 | 0.254 |  |  |  |  | 0.338 | 0.28 | 0.316 | 0.223 |  |  |  | 
7 | NCI-H1793 | 0.397 | 0.448 | 0.332 | 0.211 | 0.323 | 0.31 | 0.307 | 0.284 | 0.277 | 0.329 | 0.272 | 0.252 |  |  |  |  | 0.828 | 0.754 | 0.522 | 0.276
8 | NCI-H1944 | 0.451 | 0.349 | 0.337 | 0.183 | 0.361 | 0.346 | 0.361 | 0.34 | 0.338 | 0.332 | 0.3 | 0.296 |  |  |  |  | 0.649 | 0.487 | 0.469 | 0.287
9 | NCI-H2170 | 0.864 | 0.916 | 0.784 | 0.587 | 0.367 | 0.363 | 0.309 | 0.262 | 0.4 | 0.391 | 0.354 | 0.343 |  |  |  |  | 0.268 | 0.273 | 0.249 | 0.228
10 | NCI-H2342 | 0.77 | 0.747 | 0.724 | 0.476 |  |  |  |  | 0.58 | 0.51 | 0.469 | 0.473 |  |  |  |  | 0.695 | 0.782 | 0.677 | 0.528
11 | SK-MES-1 | 0.537 | 0.434 | 0.331 | 0.226 | 0.37 | 0.34 | 0.354 | 0.352 | 0.327 | 0.296 | 0.289 | 0.256 |  |  |  |  | 0.941 | 0.948 | 0.879 | 0.391
12 | SW 900 | 0.899 | 0.753 | 0.683 | 0.364 |  |  |  |  | 0.582 |  | 0.532 | 0.423 |  |  |  |  | 0.499 | 0.478 | 0.477 | 0.27
